Active and inactive are the calls of the source. The calls are words filed in the database; no cut-off is given here.
Tests used:
[1] = system: Trypanosoma brucei brucei; assay: Antitrypanosomal activity against TbAT1 knock out and pentamidine-resistant Trypanosoma brucei brucei B48 mutant after 48 hrs by alamar blue assay; format: functional, organism-based
[2] = system: Trypanosoma brucei brucei; assay: Antitrypanosomal activity against TbAT1 knock out Trypanosoma brucei brucei mutant after 48 hrs by alamar blue assay; format: functional, organism-based
[3] = system: Trypanosoma brucei brucei; assay: Antitrypanosomal activity against wild type Trypanosoma brucei brucei s427 after 48 hrs by alamar blue assay; format: functional, organism-based; conditions: s427, 48 h
[4] = system: Trypanosoma brucei brucei; assay: Inhibition of DNA replication in wild type Trypanosoma brucei brucei s427 assessed as kinetoplast disintegrate at IC50 after 24 hrs by DAPI staining visualized by fluorescence microscopy; format: functional, organism-based
[5] = system: Trypanosoma brucei brucei; assay: Resistance factor, ratio of IC50 for TbAT1 knock out Trypanosoma brucei brucei mutant to IC50 for wild type Trypanosoma brucei brucei s427; format: functional
[6] = system: Trypanosoma brucei brucei; assay: Resistance factor, ratio of IC50 for TbAT1 knock out and pentamidine-resistant Trypanosoma brucei brucei B48 mutant to IC50 for wild type Trypanosoma brucei brucei s427; format: functional

Compound	IC50 [1] [µM]	IC50 [2] [µM]	IC50 [3] [µM]	Activity [4]	Ratio IC50 [5]	Ratio IC50 [6]
NCCCC(N)(C(=O)NCCCNc1nc(N)nc(N)n1)C(F)F (stereo not drawn)	> 100	> 100	> 100	–	–	–
CCn1cc(C(=O)O)c(=O)c2cc(F)c(N3CCNCC3)cc21 [NORFLOXACIN]	–	–	39.9	Active	–	–
O=C(O)c1cn(C2CC2)c2cc(N3CCNCC3)c(F)cc2c1=O [CIPROFLOXACIN]	–	–	17.2	–	–	–
NCCCNc1nc(N)nc(N)n1	> 100	> 100	> 100	–	–	–
NCCCC(N)(C(=O)OCCCNc1nc(N)nc(N)n1)C(F)F (stereo not drawn)	> 100	> 100	> 100	–	–	–
CC1COc2c(N3CCN(C)CC3)c(F)cc3c(=O)c(C(=O)OCCCNc4nc(N)nc(N)n4)cn1c23 (stereo not drawn)	31.5	35.7	31.6	–	1.1	1
CC1COc2c(N3CCN(C)CC3)c(F)cc3c(=O)c(C(=O)O)cn1c23 (stereo not drawn) [OFLOXACIN]	–	–	> 100	–	–	–
C[C@H]1[C@H](OC(=O)CCC(=O)O)O[C@@H]2O[C@@]3(C)CC[C@H]4[C@H](C)CC[C@@H]1[C@@]24OO3 [ARTESUNATE]	27.5	15	12.8	–	1.2	2.1
CCn1cc(C(=O)O)c(=O)c2cc(F)c(N3CCNC(C)C3)c(F)c21 (stereo not drawn) [LOMEFLOXACIN]	–	–	197	–	–	–
CC(C)(C)OC(=O)NCCCC(N)(C(=O)OCCCNc1nc(N)nc(N)n1)C(F)F (stereo not drawn)	888	400	382	–	1	2.3
Nc1nc(N)nc(N2CCN(c3cc4c(cc3F)c(=O)c(C(=O)O)cn4C3CC3)CC2)n1	–	–	4940	–	–	–
Nc1nc(N)nc(NCCCO)n1	> 100	> 100	> 100	–	–	–
CC(C)(C)OC(=O)NCCCC(N)(C(=O)NCCCNc1nc(N)nc(N)n1)C(F)F (stereo not drawn)	> 100	105	355	–	0.3	–
C[C@@H]1CN(c2c(F)c(N)c3c(=O)c(C(=O)O)cn(C4CC4)c3c2F)C[C@H](C)N1 [SPARFLOXACIN]	–	–	18.5	–	–	–
CC1COc2c(N3CCN(C)CC3)c(F)cc3c(=O)c(C(=O)NCCCNc4nc(N)nc(N)n4)cn1c23 (stereo not drawn)	> 100	> 100	112	–	–	–
Nc1nc(N)nc(NCCCC(N)(C(=O)O)C(F)F)n1 (stereo not drawn)	–	–	> 100	–	–	–
C[C@H]1[C@H](OC(=O)CCC(=O)NCCCNc2nc(N)nc(N)n2)O[C@@H]2O[C@@]3(C)CC[C@H]4[C@H](C)CC[C@@H]1[C@@]24OO3	7.1	2.9	2.6	–	1.1	2.7
CCn1cc(C(=O)O)c(=O)c2cc(F)c(N3CCN(c4nc(N)nc(N)n4)CC3)cc21	27.7	32.7	5.2	inactive	6.3	5.3
C[C@H]1[C@H](OC(=O)CCC(=O)OCCCNc2nc(N)nc(N)n2)O[C@@H]2O[C@@]3(C)CC[C@H]4[C@H](C)CC[C@@H]1[C@@]24OO3	12.1	5	4	–	1.2	3

Reference: ChEMBL document CHEMBL1152793, “Targeted delivery of compounds to Trypanosoma brucei using the melamine motif” (Bioorg Med Chem, 2009)
